The values below come from PubChem BioAssay (NCI).

Where “and” joins values, the source holds several entries; their conditions need not be identical. Equal entries are not always repeated.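 Protocol summary: plate cells (96-well), add compound at 5 concentrations, incubate 48 h, interpolate endpoints linearly. GI50 marks 50% less growth. Definition used: TGI = concentration required for complete inhibition of growth.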

Some test systems named below: HS 578T breast; HL-60(TB) leukemia; HCT-15 colon; SN12C renal; HOP-92 NSCLC; UACC-257 melanoma; MDA-MB-231 breast; A549 NSCLC; OVCAR-8 ovarian; UO-31 renal.
Experiment in all cases: inhibition of tumour cell growth, NCI panel, 48 h

Consider `CC/C(=N/N=C(N)N)c1ccc(NC(=O)Nc2ccc(/C(CC)=N/N=C(N)N)cc2)cc1`, for which the GI50 was 22.6 µM with HS 578T breast; 2.85 µM with HL-60(TB) leukemia; 11.9 µM in the experiment with HCT-15 colon; 3.16 µM in the experiment with SN12C renal; 5.67 µM in the experiment with HOP-92 NSCLC; 13.8 µM with UACC-257 melanoma. Further, the GI50 in the experiment on MDA-MB-231 breast was 6.88 µM; in the experiment on A549 NSCLC, 5.1 µM; in the experiment on OVCAR-8 ovarian, 5.95 µM; with UO-31 renal, 12.4 µM. The TGI was over 100 µM in the experiment with HS 578T breast; 21.8 µM in the experiment on HL-60(TB) leukemia; 33.2 µM in the experiment on HCT-15 colon; 19.4 µM with SN12C renal; 35.2 µM in the experiment with HOP-92 NSCLC; 42 µM in the experiment with UACC-257 melanoma. Moreover, the TGI is 28.1 µM in the experiment with MDA-MB-231 breast, 22.4 µM in the experiment on A549 NSCLC, over 100 µM with OVCAR-8 ovarian and 27.2 µM with UO-31 renal.
Consider `COc1ccc(-c2nc3sccn3c2-c2ccnc(NCCCNS(=O)(=O)c3ccc(F)cc3)n2)cc1`, for which the GI50 with HS 578T breast is 3.22 µM; with HL-60(TB) leukemia it was 2.64 µM; in the experiment on HCT-15 colon it was 2.4 µM; in the experiment with SN12C renal, 2.74 µM; in the experiment on HOP-92 NSCLC, 1.75 µM; in the experiment with UACC-257 melanoma, 2.85 µM. Moreover, the GI50 in the experiment on MDA-MB-231 breast was 4.18 µM; with A549 NSCLC, 2.94 µM; in the experiment with OVCAR-8 ovarian, 1.57 µM; in the experiment with UO-31 renal, 1.85 µM. Besides, the TGI is 9.03 µM in the experiment with HS 578T breast; 9.22 µM in the experiment on HL-60(TB) leukemia; 10.6 µM in the experiment on HCT-15 colon; over 100 µM in the experiment with SN12C renal; over 100 µM in the experiment on HOP-92 NSCLC; over 100 µM in the experiment with UACC-257 melanoma. The TGI was over 100 µM in the experiment on MDA-MB-231 breast, over 100 µM with A549 NSCLC, over 100 µM in the experiment with OVCAR-8 ovarian and 5.17 µM in the experiment with UO-31 renal.
On to `OCc1ccc(N(Cc2ccc(F)cc2)CC2CCC2)cc1Cl`, for which the GI50 in the experiment on HS 578T breast is 17.3 µM; with HL-60(TB) leukemia it was 12.1 µM; in the experiment on HCT-15 colon, 11.7 µM; with SN12C renal it was 12 µM; with HOP-92 NSCLC, 0.839 µM; in the experiment on UACC-257 melanoma it was 1.53 µM. Besides, the GI50 is 13.5 µM in the experiment with MDA-MB-231 breast, 8.49 µM in the experiment with A549 NSCLC, 14.7 µM with OVCAR-8 ovarian and 8.3 µM in the experiment on UO-31 renal. The TGI is 40.3 µM in the experiment with HS 578T breast; 28.9 µM in the experiment with HL-60(TB) leukemia; 25 µM in the experiment with HCT-15 colon; 24.7 µM in the experiment on SN12C renal; 12.8 µM with HOP-92 NSCLC; 7.78 µM with UACC-257 melanoma. Also, the TGI in the experiment on MDA-MB-231 breast was determined as 26.8 µM; with A549 NSCLC, 22.4 µM; in the experiment on OVCAR-8 ovarian, 32.4 µM; in the experiment on UO-31 renal it was 21 µM.
As for `CCc1ccc([O-])c(C=NCCCN(C)CCCN=Cc2cc(C)ccc2[O-])c1.[Co+3].[N-]=[N+]=[N-]`, the GI50 in the experiment on HS 578T breast was 13.8 µg/mL; with HL-60(TB) leukemia it was 61 µg/mL; in the experiment on HCT-15 colon, 29.5 µg/mL and 35.9 µg/mL; in the experiment with SN12C renal it was 50 µg/mL and 61.8 µg/mL; in the experiment on HOP-92 NSCLC, 15.9 µg/mL and 22 µg/mL; with UACC-257 melanoma, 50 µg/mL and > 150 µg/mL. The GI50 is 15.2 µg/mL in the experiment with MDA-MB-231 breast; 50 µg/mL and 106 µg/mL with A549 NSCLC; 31.9 µg/mL and 49.1 µg/mL in the experiment on OVCAR-8 ovarian; 50 µg/mL and 84.2 µg/mL with UO-31 renal. The TGI with HS 578T breast was 50 µg/mL; in the experiment with HL-60(TB) leukemia, over 150 µg/mL; in the experiment on HCT-15 colon, 50 µg/mL and > 150 µg/mL; in the experiment with SN12C renal, 50 µg/mL and > 150 µg/mL; in the experiment with HOP-92 NSCLC it was 50 µg/mL and 54.7 µg/mL; in the experiment on UACC-257 melanoma it was 50 µg/mL and > 150 µg/mL. The TGI in the experiment with MDA-MB-231 breast is 38.5 µg/mL; in the experiment on A549 NSCLC it was 50 µg/mL and > 150 µg/mL; in the experiment on OVCAR-8 ovarian it was 50 µg/mL and > 150 µg/mL; in the experiment on UO-31 renal, 50 µg/mL and > 150 µg/mL.
With `O=C1NC(=N[C@H](CO)c2ccccc2)S/C1=C\c1ccc2ncccc2c1`, the GI50 with HS 578T breast was 3.49 µM; with HL-60(TB) leukemia, 4.19 µM; in the experiment with HCT-15 colon, 5.2 µM; with SN12C renal, 5.02 µM; in the experiment on HOP-92 NSCLC, 4.59 µM; in the experiment with UACC-257 melanoma, 6.39 µM. The GI50 is 7.71 µM with MDA-MB-231 breast, 4.62 µM in the experiment on A549 NSCLC, 5.27 µM with OVCAR-8 ovarian and 4.61 µM with UO-31 renal. Moreover, the TGI in the experiment with HS 578T breast was over 13.8 µM; in the experiment with HL-60(TB) leukemia, 16.7 µM; in the experiment with HCT-15 colon it was over 25 µM; in the experiment on SN12C renal it was over 25 µM; with HOP-92 NSCLC, 18.7 µM; in the experiment with UACC-257 melanoma, 19.2 µM. In addition, the TGI was over 25 µM in the experiment with MDA-MB-231 breast, 18.8 µM with A549 NSCLC, over 25 µM in the experiment on OVCAR-8 ovarian and 13.8 µM in the experiment with UO-31 renal.
For `C=C1C(=O)C2(C)OC2(C)C1C(=O)O` (stereo not given), the TGI with HS 578T breast, in the experiment with HL-60(TB) leukemia, in the experiment on HCT-15 colon, with SN12C renal, with HOP-92 NSCLC and in the experiment on UACC-257 melanoma was over 100 µM throughout. Further, the TGI with MDA-MB-231 breast, in the experiment on A549 NSCLC, in the experiment on OVCAR-8 ovarian and with UO-31 renal was over 100 µM throughout.
`CNCCNc1nc2ccccc2c2c(=O)c3cccc(C)c3sc12`: the GI50 is 5.07 µM in the experiment on HS 578T breast; 1.06 µM in the experiment with HL-60(TB) leukemia; 1.13 µM in the experiment with HCT-15 colon; 2.04 µM with SN12C renal; 1.69 µM in the experiment on HOP-92 NSCLC; 0.944 µM with UACC-257 melanoma. Besides, the GI50 is 1.02 µM in the experiment with MDA-MB-231 breast, 1.82 µM with A549 NSCLC, 1.94 µM in the experiment with OVCAR-8 ovarian and 0.79 µM in the experiment with UO-31 renal. The TGI is 14.2 µM with HS 578T breast; 2.2 µM in the experiment with HL-60(TB) leukemia; 2.67 µM in the experiment with HCT-15 colon; 8.37 µM with SN12C renal; 10.8 µM with HOP-92 NSCLC; 1.95 µM in the experiment with UACC-257 melanoma. Besides, the TGI in the experiment on MDA-MB-231 breast came to 3.61 µM; with A549 NSCLC, 7.5 µM; with OVCAR-8 ovarian, 7.65 µM; in the experiment with UO-31 renal, 7.12 µM.
As for `CCN(CCO)CCCOc1ccc2c(Nc3cc(CC(=O)Nc4cccc(F)c4)[nH]n3)ncnc2c1`, the GI50 with HS 578T breast was 8.15 µM; in the experiment on HL-60(TB) leukemia it was 13 µM; with HCT-15 colon it was over 100 µM; in the experiment on SN12C renal, 19.8 µM; with HOP-92 NSCLC it was 10.6 µM; in the experiment with UACC-257 melanoma, 12.4 µM. Moreover, the GI50 in the experiment on MDA-MB-231 breast was 19.2 µM; in the experiment on A549 NSCLC, 20.5 µM; with OVCAR-8 ovarian, 23.8 µM; with UO-31 renal, over 100 µM. Further, the TGI with HS 578T breast is over 60.5 µM; in the experiment on HL-60(TB) leukemia, 40.4 µM; in the experiment on HCT-15 colon, over 100 µM; in the experiment with SN12C renal, over 100 µM; with HOP-92 NSCLC it was 33.3 µM; in the experiment on UACC-257 melanoma, 29.2 µM and > 2.56 µM. For the same molecule, the TGI with MDA-MB-231 breast was over 51.5 µM; in the experiment on A549 NSCLC, over 100 µM; in the experiment with OVCAR-8 ovarian, over 100 µM; with UO-31 renal, over 100 µM.
